Experimental data reported in patent US12612465B2, “Formulations comprising PCSK9 specific monoclonal antibodies” (Amgen Inc., priority 2012, dated 2026).

Biological target: PCSK9 (Homo sapiens, UniProt Q8NBP7)
Assay: 12 week monotherapy dose-ranging study, Framingham risk 10% or less (Example 24)
Type: in vivo
Parameters: endogenous in cells; host or cells: human subjects, in vivo
Experimental: Ezetimibe was not blinded. The end-of-study visit and the last estimation of lipids was at week 12 for subjects on Q4W IP schedule or on ezetimibe and week 14 for subjects on Q2W IP schedule.
Males and females, ≥18 to ≤75 years of age, were eligible for this study. Fasting LDL-C was ≥100 mg/dL (2.6 mmol/L) and ≤190 mg/dL (4.9 mmol/L) and fasting triglycerides ≤400 mg/dL (4.5 mmol/L) by central laboratory at screening.
The primary endpoint was the percent change from baseline in LDL-C at week 12. Secondary endpoints included percent changes in apolipoprotein B (ApoB), lipoprotein (a) (Lp(a)), and in the ratio of total cholesterol to high-density lipoprotein (HDL)-C. Tolerability and safety were also evaluated.

Chain of PCSK9 (Q8NBP7 153-692): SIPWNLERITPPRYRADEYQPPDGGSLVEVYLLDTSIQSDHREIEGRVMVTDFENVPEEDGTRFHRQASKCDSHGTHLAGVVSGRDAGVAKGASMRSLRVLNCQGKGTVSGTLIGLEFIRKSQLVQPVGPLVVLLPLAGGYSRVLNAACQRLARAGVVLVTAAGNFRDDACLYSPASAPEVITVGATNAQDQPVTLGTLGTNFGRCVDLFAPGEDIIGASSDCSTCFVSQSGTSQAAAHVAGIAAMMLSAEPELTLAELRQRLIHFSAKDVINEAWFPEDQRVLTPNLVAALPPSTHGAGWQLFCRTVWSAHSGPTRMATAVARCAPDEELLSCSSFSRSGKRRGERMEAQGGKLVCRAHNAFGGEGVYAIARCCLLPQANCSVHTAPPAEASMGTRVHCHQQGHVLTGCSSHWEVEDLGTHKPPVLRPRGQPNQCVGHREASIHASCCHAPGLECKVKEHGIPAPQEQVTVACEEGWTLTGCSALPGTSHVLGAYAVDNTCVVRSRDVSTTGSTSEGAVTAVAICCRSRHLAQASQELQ

SMILES: O=C1[C@H](CC[C@H](O)c2ccc(F)cc2)[C@@H](c2ccc(O)cc2)N1c1ccc(F)cc1 [Ezetimibe, ezetimibe, reference compound]
- Least squares mean percent change from baseline in LDL-C, week 12 (Ezetimibe QD (N = 45)): −14.26%
- percent change from baseline in LDL-C (ezetimibe QD PO, week 12, final data): 14%
